Experiments:
[1] = biological target: T1, Solute carrier family 22 member 2 (Rattus norvegicus, UniProt Q9R0W2); format: functional, cell-based, MDCK
T1 sequence (Q9R0W2 whole entry): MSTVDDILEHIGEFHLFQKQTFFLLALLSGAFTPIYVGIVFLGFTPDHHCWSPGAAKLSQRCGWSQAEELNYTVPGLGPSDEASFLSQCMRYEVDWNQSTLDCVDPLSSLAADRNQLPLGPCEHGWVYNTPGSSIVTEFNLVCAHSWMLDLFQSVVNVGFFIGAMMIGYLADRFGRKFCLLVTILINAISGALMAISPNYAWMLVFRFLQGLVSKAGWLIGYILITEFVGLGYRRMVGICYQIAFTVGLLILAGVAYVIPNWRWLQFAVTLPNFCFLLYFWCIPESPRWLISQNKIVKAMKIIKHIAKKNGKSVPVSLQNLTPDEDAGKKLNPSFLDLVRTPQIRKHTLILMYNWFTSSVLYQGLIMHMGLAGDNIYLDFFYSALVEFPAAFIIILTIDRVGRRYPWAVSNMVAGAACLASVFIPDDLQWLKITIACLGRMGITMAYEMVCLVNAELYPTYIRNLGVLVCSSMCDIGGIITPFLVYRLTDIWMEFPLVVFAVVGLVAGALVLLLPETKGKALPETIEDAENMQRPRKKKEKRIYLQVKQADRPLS

[2] = biological target: T2, Solute carrier family 22 member 1 (Rattus norvegicus, UniProt Q63089); format: functional, cell-based, MDCK
T2 sequence (Q63089 whole entry): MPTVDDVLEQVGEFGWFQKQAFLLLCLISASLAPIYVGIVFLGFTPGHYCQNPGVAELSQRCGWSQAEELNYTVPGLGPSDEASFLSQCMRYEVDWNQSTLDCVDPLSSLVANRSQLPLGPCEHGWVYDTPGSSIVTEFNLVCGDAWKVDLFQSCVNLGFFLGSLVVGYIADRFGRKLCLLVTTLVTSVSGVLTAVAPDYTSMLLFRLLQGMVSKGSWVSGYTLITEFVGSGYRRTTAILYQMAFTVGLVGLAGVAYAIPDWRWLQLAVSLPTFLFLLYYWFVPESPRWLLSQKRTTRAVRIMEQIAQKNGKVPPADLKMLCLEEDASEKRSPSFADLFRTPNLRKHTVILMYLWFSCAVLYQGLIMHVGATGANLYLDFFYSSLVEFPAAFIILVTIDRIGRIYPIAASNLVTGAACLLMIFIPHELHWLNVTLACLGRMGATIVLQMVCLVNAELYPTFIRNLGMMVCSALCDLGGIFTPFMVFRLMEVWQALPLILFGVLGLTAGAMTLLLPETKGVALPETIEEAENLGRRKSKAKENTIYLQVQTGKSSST

[3] = biological target: T1, Solute carrier family 22 member 2; assay: TP_TRANSPORTER: inhibition of TEA uptake in OCT2-expressing MDCK cells; format: functional, cell-based
[4] = biological target: T2, Solute carrier family 22 member 1; assay: TP_TRANSPORTER: inhibition of TEA uptake in OCT1-expressing MDCK cells; format: functional, cell-based

Row | SMILES | IC50 [1] [µM] | IC50 [2] [µM] | Ki [3] [µM] | Ki [4] [µM]
1 | CCN(CC)CCNC(=O)c1ccc(NC(C)=O)cc1 [ACECAINIDE] | 5 | 8.8 | – | –
2 | N=C(N)NC(=O)c1nc(Cl)c(N)nc1N [AMILORIDE] | – | – | 4.7 | 6.9
3 | CN(C)CCC(c1ccc(Cl)cc1)c1ccccn1 (stereo not given) [CHLORPHENIRAMINE] | 26 | 14 | – | –
4 | C[N+](C)(C)CCO [CHOLINE] | 1450 | 1450 | – | –
5 | CC(C)N(CCC(C(N)=O)(c1ccccc1)c1ccccn1)C(C)C (stereo not given) [DISOPYRAMIDE] | – | – | 30 | 62
6 | NCCc1ccc(O)c(O)c1 [DOPAMINE] | – | – | 347 | 603
7 | CNC[C@H](O)c1ccc(O)c(O)c1 [EPINEPHRINE] | – | – | 1190 | 1600
8 | NCCc1c[nH]cn1 [HISTAMINE] | – | – | 171 | 141
9 | CN(C)CCCN1c2ccccc2CCc2ccccc21 [IMIPRAMINE] | 9.9 | 16 | – | –
10 | CCN(CC)CCNC(=O)c1ccc(N)cc1 [PROCAINAMIDE] | – | – | 36 | –
11 | NCCc1c[nH]c2ccc(O)cc12 [SEROTONIN] | – | – | 242 | 390
12 | CCCC[N+](CCCC)(CCCC)CCCC [TETRABUTHYLAMMONIUM] | 5.7 | 7.9 | – | –
13 | C[N+](C)(C)C [TETRAMETHYLAMMONIUM] | 1670 | – | – | –
14 | CCCCC[N+](CCCCC)(CCCCC)CCCCC [TETRAPENTYLAMMONIUM] | 1.7 | 1.3 | – | –
15 | CCC[N+](CCC)(CCC)CCC [TETRAPROPYLAMMONIUM] | 39 | 23 | – | –
16 | Cc1ncc(C[n+]2csc(CCO)c2C)c(N)n1 [THIAMINE ION] | – | – | 646 | 736

Reference: ChEMBL document CHEMBL2074017, “Distinct characteristics of organic cation transporters, OCT1 and OCT2, in the basolateral membrane of renal tubules” (Pharm Res, 2001)
